These results are taken from patent US8188301B2, “Disubstituted phenylpyrrolidines as modulators of cortical catecholaminergic neurotransmission” (NSAB, Filial af NeuroSearch Sweden AB, Sverige, priority 2007, dated 2012).

Molecules are shown by their SMILES. Structures can show the parent of a compound that is named as a salt.

A word on the melting point: it is the temperature, or range, at which the solid turns liquid. The molecule `CN1CCC(O)(c2ccc(F)c(F)c2)C1` (stereo not drawn) (as salt: fumaric acid salt) displayed a melting point of 164 to 166 °C. As for `CCN1CCC(O)(c2cccc(Cl)c2F)C1` (stereo not drawn) (as salt: fumaric acid salt), the figure is 142 to 145.5 °C; as for `CCCN1CCC(O)(c2ccc(F)c(Cl)c2)C1` (stereo not drawn) (as salt: fumaric acid salt), 157.9 °C; as for `CCN1CCC(O)(c2ccc(F)c(F)c2)C1` (stereo not drawn) (as salt: fumaric acid salt), 136 to 137 °C. With `CN1CCC(O)(c2cc(F)cc(Cl)c2)C1` (stereo not drawn) (as salt: fumaric acid salt) the figure was 129 to 131 °C. With `CC(C)N1CCC(O)(c2ccc(F)c(F)c2)C1` (stereo not drawn) (as salt: fumaric acid salt) the figure was 143 to 147 °C; with `CCN1CCC(O)(c2ccc(F)c(Cl)c2)C1` (stereo not drawn) (as salt: fumaric acid salt) [Example 3, 3-(3-CHLORO-4-FLUOROPHENYL)-1-ETHYLPYRROLIDIN-3-OL], 157 to 158 °C. `CCN1CCC(O)(c2cccc(F)c2F)C1` (stereo not drawn) (as salt: fumaric acid salt) [Example 4, 3-(2,3-DIFLUOROPHENYL)-1-ETHYLPYRROLIDIN-3-OL] came in with a melting point of 119 to 120 °C.

`CCCN1CCC(O)(c2cc(F)cc(F)c2)C1` (stereo not drawn) (as salt: fumaric acid salt) [Example 9, 3-(3,5-DIFLUOROPHENYL)-1-PROPYLPYRROLIDIN-3-OL] displayed a melting point of 136 to 137 °C. With `CCN1CCC(O)(c2ccc(Cl)c(Cl)c2)C1` (stereo not drawn) (as salt: fumaric acid salt) [Example 10, 3-(3,4-DICHLOROPHENYL)-1-ETHYLPYRROLIDIN-3-OL], the melting point lay in the range of 184 to 185 °C. As for `CCN1CCC(O)(c2ccc(F)c(F)c2)C1` (stereo not drawn) (as salt: fumaric acid salt) [Example 12, 3-(3,4-DIFLUOROPHENYL)-1-ETHYLPYRROLIDIN-3-OL], the figure is 157 to 158 °C. As for `CCCN1CCC(O)(c2ccc(F)c(F)c2)C1` (stereo not drawn) (as salt: fumaric acid salt) [Example 27], the figure is 127 to 129 °C. `CCCN1CCC(O)(c2ccc(F)c(F)c2)C1` (stereo not drawn) (as salt: fumaric acid salt) [Example 28] had a melting point of 128 to 129 °C. As for `CCCN1CCC(O)(c2cccc(F)c2F)C1` (stereo not drawn) (as salt: fumaric acid salt) [Example 33], the figure is 97 to 100 °C.

In the case of `CCCN1CCC(O)(c2cccc(F)c2F)C1` (stereo not drawn) (as salt: fumaric acid salt) [Example 34], the melting point was in the range of 95 to 98 °C. `FC1(c2cc(Cl)cc(Cl)c2)CCNC1` (stereo not drawn) (as salt: hydrochloric acid salt) [Example 14, 3-(3,5-DICHLOROPHENYL)-3-FLUOROPYRROLIDINE]: the melting point is 201 to 202 °C.

In the case of `Fc1cccc(C2(F)CCNC2)c1F` (stereo not drawn) (as salt: hydrochloric acid salt) [Example 23, 3-(2,3-DIFLUOROPHENYL)-3-FLUOROPYRROLIDINE], the melting point worked out at 136 °C. Molecule `CN1CCC(O)(c2ccc(F)cc2F)C1` (stereo not drawn) (as salt: oxalic acid salt) yielded a melting point of 117 to 119 °C. `CCN1CCC(O)(c2cccc(Cl)c2Cl)C1` (stereo not drawn) (as salt: oxalic acid salt) yielded a melting point of 206 to 207 °C. Consider `CCCN1CCC(O)(c2cc(F)cc(Cl)c2)C1` (stereo not drawn) (as salt: oxalic acid salt), for which the melting point amounted to 157.2 °C. Regarding `CCCCN1CCC(O)(c2cc(F)cc(F)c2)C1` (stereo not drawn) (as salt: oxalic acid salt), the melting point was in the range of 146 to 147 °C. With `CN1CCC(O)(c2cccc(Cl)c2F)C1` (stereo not drawn) (as salt: oxalic acid salt) the figure was 123 to 125 °C; with `CCN1CCC(O)(c2cc(F)cc(Cl)c2)C1` (stereo not drawn) (as salt: oxalic acid salt) [Example 5, 3-(3-CHLORO-5-FLUOROPHENYL)-1-ETHYLPYRROLIDIN-3-OL], 169 to 170 °C. As for `CCCN1CCC(O)(c2ccc(F)c(F)c2)C1` (stereo not drawn) (as salt: oxalic acid salt) [Example 7, 3-(3,4-DIFLUOROPHENYL)-1-PROPYLPYRROLIDIN-3-OL], the figure is 131 to 132 °C; as for `CN1CCC(F)(c2cc(F)cc(F)c2)C1` (stereo not drawn) (as salt: oxalic acid salt) [Example 11, 3-(3,5-DIFLUOROPHENYL)-3-FLUORO-1-METHYLPYRROLIDINE], 128 to 129 °C. With `Fc1cc(F)cc(C2(F)CCNC2)c1` (stereo not drawn) (as salt: oxalic acid salt) [Example 13, 3-(3,5-DIFLUOROPHENYL)-3-FLUOROPYRROLIDINE] the figure was 176 to 177 °C. Regarding `CN1CCC(O)(c2cc(F)cc(F)c2)C1` (stereo not drawn) (as salt: oxalic acid salt) [Example 18], the melting point lay in the range of 159 to 162 °C. With `CCCN1CCC(O)(c2cc(F)cc(F)c2)C1` (stereo not drawn) (as salt: oxalic acid salt) [Example 29] the figure was 117 to 118 °C; with `CCCN1CCC(O)(c2cc(F)cc(F)c2)C1` (stereo not drawn) (as salt: oxalic acid salt) [Example 30], 118 to 119 °C. As for `CCN1CCC(O)(c2cc(F)cc(Cl)c2)C1` (stereo not drawn) (as salt: oxalic acid salt) [Example 31], the figure is 117 to 118 °C.

`CCN1CCC(O)(c2cccc(Cl)c2F)C1` (stereo not drawn) (as salt: oxalic acid salt) [Example 35] had a melting point of 71 to 74 °C. Molecule `CCN1CCC(O)(c2cccc(Cl)c2F)C1` (stereo not drawn) (as salt: oxalic acid salt) [Example 37] returned a melting point of 72 to 74 °C. With `CCCCN1CCC(O)(c2cccc(F)c2F)C1` (stereo not drawn) (as salt: oxalic acid salt) [Example 38] the figure was 155.3 °C; with `CC(C)CN1CCC(O)(c2cccc(F)c2F)C1` (stereo not drawn) (as salt: oxalic acid salt) [Example 39], 176 °C. As for `CN1CCC(O)(c2cccc(F)c2F)C1` (stereo not drawn) (as salt: oxalic acid salt) [Example 40], the figure is 134.3 °C; as for `C=CCN1CCC(O)(c2cccc(F)c2F)C1` (stereo not drawn) (as salt: oxalic acid salt) [Example 41], 120 °C. With `C=CCN1CCC(O)(c2cc(F)cc(F)c2)C1` (stereo not drawn) (as salt: oxalic acid salt) [Example 44] the figure was 102 to 103 °C; with `CC(C)CN1CCC(O)(c2cc(F)cc(F)c2)C1` (stereo not drawn) (as salt: oxalic acid salt) [Example 46], 162 to 163 °C. For `CN1CCC(O)(c2cc(F)cc(F)c2)C1` (stereo not drawn) (as salt: oxalic acid salt) [Example 47], the melting point was 134 to 135 °C.

Turning to `OC1(c2cccc(F)c2F)CCN(CC2CC2)C1` (stereo not drawn) (as salt: oxalic acid salt) [Example 49], the melting point is 172.8 °C.

For the molecule `CN1CCC(O)(c2cc(F)cc(F)c2)C1` (stereo not drawn) (as salt: oxalic acid salt) [Example 52], the melting point was 150 °C. As for `CC(C)CN1CCC(O)(c2cc(F)cc(F)c2)C1` (stereo not drawn) (as salt: oxalic acid salt) [Example 53], the figure is 164 to 165 °C; as for `C=CCN1CCC(O)(c2cc(F)cc(F)c2)C1` (stereo not drawn) (as salt: oxalic acid salt) [Example 55], 104 to 105 °C.

`CCCCN1CCC(O)(c2cccc(F)c2F)C1` (stereo not drawn) (as salt: oxalic acid salt) [Example 58] displayed a melting point of 157 to 158 °C.

In turn, `CN1CCC(O)(c2cccc(F)c2F)C1` (stereo not drawn) (as salt: oxalic acid salt) [Example 59] displayed a melting point of 131 to 132 °C. As for `CC(C)CN1CCC(O)(c2cccc(F)c2F)C1` (stereo not drawn) (as salt: oxalic acid salt) [Example 61], the figure is 168 to 169 °C. With `C=CCN1CCC(O)(c2cccc(F)c2F)C1` (stereo not drawn) (as salt: oxalic acid salt) [Example 62] the figure was 119 to 120 °C. Turning to `OC1(c2cccc(F)c2F)CCN(CC2CC2)C1` (stereo not drawn) (as salt: oxalic acid salt) [Example 64], the melting point fell in the range of 170 to 171 °C.

Molecule `CN1CCC(O)(c2cc(F)cc(Cl)c2)C1` (stereo not drawn) (as salt: oxalic acid salt) [Example 65] showed a melting point of 117 to 118 °C. Molecule `CN1CCC(O)(c2cc(F)cc(Cl)c2)C1` (stereo not drawn) (as salt: oxalic acid salt) [Example 66] came in with a melting point of 114 to 115 °C. With `CCN1CCC(O)(c2cc(F)cc(Cl)c2)C1` (stereo not drawn) (as salt: oxalic acid salt) [Example 67] the figure was 113 to 114 °C; with `CCN1CCC(O)(c2cc(F)cc(F)c2)C1` (single isomer, unassigned; (+)) (as salt: oxalic acid salt) [Example 2, (+)-3-(3,5-DIFLUOROPHENYL)-1-ETHYLPYRROLIDIN-3-OL], 137 to 139 °C; with `COCCN1CCC(O)(c2cc(F)cc(F)c2)C1` (single isomer, unassigned; (+)) (as salt: oxalic acid salt) [Example 54, (+)-3-(3,5-DIFLUOROPHENYL)-1-(2-METHOXYETHYL)PYRROLIDIN-3-OL], 131 to 132 °C. On to `COCCN1CCC(O)(c2cccc(F)c2F)C1` (single isomer, unassigned; (+)) (as salt: oxalic acid salt) [Example 60, (+)-3-(2,3-DIFLUOROPHENYL)-1-(2-METHOXYETHYL)PYRROLIDIN-3-OL], for which the melting point was in the range of 149 to 150 °C. As for `OC1(c2cccc(F)c2F)CCN(CCC(F)(F)F)C1` (single isomer, unassigned; (+)) (as salt: oxalic acid salt) [Example 63, (+)-3-(2,3-DIFLUOROPHENYL)-1-(3,3,3-TRIFLUOROPROPYL)PYRROLIDIN-3-OL], the figure is 144 to 145 °C; as for `CCN1CCC(O)(c2cc(F)cc(F)c2)C1` (single isomer, unassigned; (-)) (as salt: oxalic acid salt) [Example 1, (−)-3-(3,5-DIFLUOROPHENYL)-1-ETHYLPYRROLIDIN-3-OL], 111 to 112 °C. With `CCN1CCC(O)(c2cccc(F)c2F)C1` (single isomer, unassigned; (-)) (as salt: oxalic acid salt) [Example 32, (−)-3-(2,3-DIFLUOROPHENYL)-1-ETHYLPYRROLIDIN-3-OL] the figure was 118 to 120 °C.
